≈ marks a conversion by molar mass, not a printed value. Read-outs that look alike come from different tables or passages of the source.
How the values were obtained:
E. faecalis = assay: MIC assay, E. faecalis; type: cell-based, Enterococcus faecalis
H. flu = type: cell-based, H. influenza
S. pneumo. = assay: MIC assay, S. pneumo.; type: cell-based, Streptococcus pneumoniae
S. aureus = assay: MIC assay, S. aureus; type: cell-based, Staphylococcus aureus
E coli = assay: MIC assay, E coli; type: cell-based

SMILES | MIC (μg/mL) E. faecalis (E. faecalis) | MIC (μg/mL) H. flu (H. flu; H. flu) | MIC (μg/mL) S. pneumo. (S. pneumo.) | MIC (μg/mL) S. aureus (S. aureus) | MIC (μg/mL) E coli (E coli) | MIC (μg/mL) H. flu (H. flu)
COC1C=COC2(C)Oc3c(C)c(O)c4c(=O)c(c5oc6cc(N7CCN(CCN(C)C)CC7)cc(O)c6nc-5c4c3C2=O)NC(=O)C(C)=CC=CC(C)C(O)C(C)C(O)C(C)C(O)C1C (stereo not drawn) [Compound 100] | 0.5 µg/mL (≈ 0.547 µM) | 0.12 µg/mL (≈ 0.131 µM) | 0.008 µg/mL (≈ 0.00875 µM) | 0.03 µg/mL (≈ 0.0328 µM) | >8 µg/mL | –
COC1C=COC2(C)Oc3c(C)c(O)c4c(=O)c(c5sc6cc(N7CCN(C)CC7)ccc6nc-5c4c3C2=O)NC(=O)C(C)=CC=CC(C)C(O)C(C)C(O)C(C)C(O)C1C (stereo not drawn) [Compound 101] | 0.12 µg/mL (≈ 0.14 µM) | 0.12 µg/mL (≈ 0.14 µM) | 0.00012 µg/mL (≈ 0.00014 µM) | 0.002 µg/mL (≈ 0.00233 µM) | 2 µg/mL (≈ 2.33 µM) | –
COC1C=COC2(C)Oc3c(C)c(O)c4c(=O)c(c5oc6cc(N7CCNCC7)cc(O)c6nc-5c4c3C2=O)NC(=O)C(C)=CC=CC(C)C(O)C(C)C(O)C(C)C(O)C1C (stereo not drawn) [Compound 104] | 0.06 µg/mL (≈ 0.0712 µM) | – | 0.002 µg/mL (≈ 0.00237 µM) | 0.008 µg/mL (≈ 0.00949 µM) | 4 µg/mL (≈ 4.75 µM) | 0.12 µg/mL (≈ 0.142 µM)
CCOc1c(N2CCN(CC3CC3)CC2)ccc2nc3c4c5c6c(C)c(O)c4c(=O)c(c-3oc12)NC(=O)/C(C)=C\C=C\[C@H](C)[C@H](O)[C@@H](C)[C@@H](O)[C@@H](C)[C@H](O)[C@H](C)[C@@H](OC)/C=C/O[C@@](C)(O6)C5=O [Compound 105] | 0.5 µg/mL (≈ 0.54 µM) | 1 µg/mL (≈ 1.08 µM) | 0.015 µg/mL (≈ 0.0162 µM) | 0.03 µg/mL (≈ 0.0324 µM) | >8 µg/mL | –
CO[C@H]1/C=C/O[C@@]2(C)Oc3c(C)c(O)c4c(=O)c(c5oc6c(F)c(N7CCN(CC(C)C)CC7)ccc6nc-5c4c3C2=O)NC(=O)/C(C)=C\C=C\[C@H](C)[C@H](O)[C@@H](C)[C@@H](O)[C@@H](C)[C@H](O)[C@@H]1C [Compound 106] | 0.5 µg/mL (≈ 0.555 µM) | 0.5 µg/mL (≈ 0.555 µM) | 0.008 µg/mL (≈ 0.00888 µM) | 0.03 µg/mL (≈ 0.0333 µM) | 8 µg/mL (≈ 8.88 µM) | –
COC1C=COC2(C)Oc3c(C)c(O)c4c(=O)c(c5oc6cc(N7CCN(C(=O)C8CC8)CC7)cc(O)c6nc-5c4c3C2=O)NC(=O)C(C)=CC=CC(C)C(O)C(C)C(O)C(C)C(O)C1C (stereo not drawn) [Compound 107] | 0.5 µg/mL (≈ 0.549 µM) | 0.25 µg/mL (≈ 0.274 µM) | 0.004 µg/mL (≈ 0.00439 µM) | 0.015 µg/mL (≈ 0.0165 µM) | 8 µg/mL (≈ 8.78 µM) | –
CCc1cc2nc3c4c5c6c(C)c(O)c4c(=O)c(c-3oc2cc1N1CCCCC1)NC(=O)/C(C)=C\C=C\[C@H](C)[C@H](O)[C@@H](C)[C@@H](O)[C@@H](C)[C@H](O)[C@H](C)[C@@H](OC)/C=C/O[C@@](C)(O6)C5=O [Compound 108] | 4 µg/mL (≈ 4.68 µM) | 2 µg/mL (≈ 2.34 µM) | 0.12 µg/mL (≈ 0.141 µM) | 1 µg/mL (≈ 1.17 µM) | 1 µg/mL (≈ 1.17 µM) | –
CO[C@H]1/C=C/O[C@@]2(C)Oc3c(C)c(O)c4c(=O)c(c5oc6cc(N7CCC(C(N)=O)CC7)cc(O)c6nc-5c4c3C2=O)NC(=O)/C(C)=C\C=C\[C@H](C)[C@H](O)[C@@H](C)[C@@H](O)[C@@H](C)[C@H](O)[C@@H]1C [Compound 109] | 1 µg/mL (≈ 1.13 µM) | 0.25 µg/mL (≈ 0.282 µM) | 0.002 µg/mL (≈ 0.00226 µM) | 0.03 µg/mL (≈ 0.0339 µM) | >8 µg/mL | –
CCOC(=O)C1CCN(c2cc(O)c3nc4c5c6c7c(C)c(O)c5c(=O)c(c-4oc3c2)NC(=O)/C(C)=C\C=C\[C@H](C)[C@H](O)[C@@H](C)[C@@H](O)[C@@H](C)[C@H](O)[C@H](C)[C@@H](OC)/C=C/O[C@@](C)(O7)C6=O)CC1 [Compound 110] | 0.5 µg/mL (≈ 0.547 µM) | 0.12 µg/mL (≈ 0.131 µM) | 0.008 µg/mL (≈ 0.00875 µM) | 0.004 µg/mL (≈ 0.00438 µM) | >8 µg/mL | –
COC1C=COC2(C)Oc3c(C)c(O)c4c(=O)c(c5oc6cc(N7CCC(F)CC7)ccc6nc-5c4c3C2=O)NC(=O)C(C)=CC=CC(C)C(O)C(C)C(O)C(C)C(O)C1C (stereo not drawn) [Compound 111] | 0.5 µg/mL (≈ 0.592 µM) | 0.12 µg/mL (≈ 0.142 µM) | 0.008 µg/mL (≈ 0.00948 µM) | 0.03 µg/mL (≈ 0.0355 µM) | 8 µg/mL (≈ 9.48 µM) | –
COC1C=COC2(C)Oc3c(C)c(O)c4c(=O)c(c5oc6cc(N7CCC(F)(F)CC7)ccc6nc-5c4c3C2=O)NC(=O)C(C)=CC=CC(C)C(O)C(C)C(O)C(C)C(O)C1C (stereo not drawn) [Compound 112] | 1 µg/mL (≈ 1.16 µM) | 0.25 µg/mL (≈ 0.29 µM) | 0.015 µg/mL (≈ 0.0174 µM) | 0.03 µg/mL (≈ 0.0348 µM) | >8 µg/mL | –
COC1C=COC2(C)Oc3c(C)c(O)c4c(=O)c(c5oc6cc(N7CC(C)OC(C)C7)cc(O)c6nc-5c4c3C2=O)NC(=O)C(C)=CC=CC(C)C(O)C(C)C(O)C(C)C(O)C1C (stereo not drawn) [Compound 114] | 0.25 µg/mL (≈ 0.287 µM) | 0.25 µg/mL (≈ 0.287 µM) | 0.002 µg/mL (≈ 0.00229 µM) | 0.015 µg/mL (≈ 0.0172 µM) | 8 µg/mL (≈ 9.17 µM) | –

— patent US7271165B2, “Rifamycin analogs and uses thereof” (priority 2003, dated 2007)
